Measurements reported in patent publication US9669028B2, “Substituted 5-(pyrazin-2-yl)-1H-pyrazolo [3, 4-B] pyridine and pyrazolo [3, 4-B] pyridine derivatives as protein kinase inhibitors” (Arrien Pharmaceuticals LLC, priority 2011, dated 2017).

Key:
Type in all cases: biochemical
LRRK2 = LRRK2 (Homo sapiens (Human), UniProt Q5S007); assay: LRRK2 Kinase Assay; details: 10 μM ATP
Experimental: (§1) Briefly, specific kinase/substrate pairs along with required cofactors were prepared in reaction buffer; 20 mM Hepes (pH 7.5), 10 mM MgCl2, 1 mM EGTA, 0.02% Brij35, 0.02 mg/ml BSA, 0.1 mM Na3VO4, 2 mM DTT, 1% DMSO. Compounds were delivered into the reaction, followed ˜20 min later by addition of a mixture of ATP (Sigma) and 33P ATP (PerkinElmer) to a final concentration of 10 μM. […] IC50 values and curve fits were obtained using Prism (GraphPad Software). Kinome tree representations were prepared using Kinome Mapper (http://www.reactionbiology.com/apps/kinome/mapper/Launch Kinome.htm).
For the wild type LRRK the 2×LRRK2/ERM (LRRKtide) mixture was prepared in 50 mM Tris pH 8.5, 0.01% BRIJ-35, 10 mM MgCl2, 1 mM EGTA, 0.02% NaN3. […] After 1 hour Kinase Reaction incubation, 5 μL of Detection Mix was added.

LRRK2 G2019S = LRRK2 G2019S (Homo sapiens (Human), UniProt Q5S007, G2019S); assay: LRRK2 G2019S Kinase Assay; details: 10 μM ATP
Experimental: Procedure: Enzyme was incubated with substrate peptide in reaction buffer in the presence and absence of test compounds or Staurosporine. All additions were done on ice, followed by the addition of ATP mix. Wells were uniformly mixed using an Eppendorff plate shaker and incubated at 30° C. for 20 min, and stopped by the addition of 5 μl of 3% phosphoric acid. Volume was increased to 100 μl by adding 0.8% phosphoric acid which was then transferred to PC filter mats (Millipore), pre-equilibrated with 70% ethanol and water. Plates were washed thrice with 100 μl 0.8% phosphoric acid and dried for an hour at 60° C. 100 μl scintillation fluid was added into each well and reading taken in Perkin Elmer TOPCOUNT beta counter. […] A validation EC50 curve was generated by plotting CPM for each Staurosporine concentration on y-axis against the Log concentration of Staurosporine (nM) on the x-axis followed by a best fit curve through the points.
After 1 hour Kinase Reaction incubation, 5 μL of Detection Mix was added.

DYRK1A = DYRK1A (Homo sapiens (Human), UniProt Q13627); assay: In vitro DYRK1A inhibition assay
Experimental: as §1
The 2×DYRK1A/Ser/Thr 18 mixture was prepared in 50 mM HEPES pH 7.5, 0.01% BRIJ-35, 10 mM MgCl2, 1 mM EGTA.

LRRK2, sequence (Q5S007 970-2527): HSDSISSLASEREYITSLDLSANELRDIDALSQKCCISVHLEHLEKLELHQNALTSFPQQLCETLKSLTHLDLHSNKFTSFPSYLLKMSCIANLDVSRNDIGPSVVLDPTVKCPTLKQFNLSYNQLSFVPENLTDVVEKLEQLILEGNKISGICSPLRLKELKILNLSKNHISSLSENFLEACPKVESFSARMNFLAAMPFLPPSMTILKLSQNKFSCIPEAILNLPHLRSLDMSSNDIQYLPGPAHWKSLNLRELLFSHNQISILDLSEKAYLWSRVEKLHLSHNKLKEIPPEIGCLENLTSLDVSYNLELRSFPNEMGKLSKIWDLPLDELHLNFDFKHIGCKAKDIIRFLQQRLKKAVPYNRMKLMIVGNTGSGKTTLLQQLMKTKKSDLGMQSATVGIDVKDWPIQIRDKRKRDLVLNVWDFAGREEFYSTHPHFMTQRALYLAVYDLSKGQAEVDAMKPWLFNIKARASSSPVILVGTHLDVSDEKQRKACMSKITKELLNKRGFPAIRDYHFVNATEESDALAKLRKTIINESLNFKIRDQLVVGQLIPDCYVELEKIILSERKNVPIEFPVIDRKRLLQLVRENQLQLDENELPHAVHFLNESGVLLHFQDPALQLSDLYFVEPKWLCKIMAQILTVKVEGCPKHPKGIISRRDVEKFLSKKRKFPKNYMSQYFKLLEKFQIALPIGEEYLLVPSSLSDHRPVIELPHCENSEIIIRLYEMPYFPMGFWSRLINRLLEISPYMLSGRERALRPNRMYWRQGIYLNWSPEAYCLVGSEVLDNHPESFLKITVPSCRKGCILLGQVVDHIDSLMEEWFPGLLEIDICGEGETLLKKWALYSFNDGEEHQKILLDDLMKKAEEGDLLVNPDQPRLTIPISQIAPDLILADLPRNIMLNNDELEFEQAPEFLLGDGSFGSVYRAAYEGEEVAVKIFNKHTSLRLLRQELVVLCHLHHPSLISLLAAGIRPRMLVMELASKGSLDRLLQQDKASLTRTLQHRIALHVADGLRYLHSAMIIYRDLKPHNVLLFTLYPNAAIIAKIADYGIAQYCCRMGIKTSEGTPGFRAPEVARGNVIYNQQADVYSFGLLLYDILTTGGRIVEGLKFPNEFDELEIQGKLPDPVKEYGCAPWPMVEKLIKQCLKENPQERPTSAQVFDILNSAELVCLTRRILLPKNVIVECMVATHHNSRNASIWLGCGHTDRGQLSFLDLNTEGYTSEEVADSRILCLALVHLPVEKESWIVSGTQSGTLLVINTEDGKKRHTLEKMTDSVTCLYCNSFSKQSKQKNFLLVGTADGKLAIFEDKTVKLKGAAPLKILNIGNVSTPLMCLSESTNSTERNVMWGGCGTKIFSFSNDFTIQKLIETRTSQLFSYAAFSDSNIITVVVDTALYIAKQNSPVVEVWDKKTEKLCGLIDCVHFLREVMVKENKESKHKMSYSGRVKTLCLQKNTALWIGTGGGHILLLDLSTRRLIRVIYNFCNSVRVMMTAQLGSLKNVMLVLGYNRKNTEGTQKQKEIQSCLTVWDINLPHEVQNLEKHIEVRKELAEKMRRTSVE
LRRK2 G2019S, sequence (Q5S007 970-2527 G2019S): as the sequence (Q5S007 970-2527) above, with G1050S counted along it

Compound: Cc1n[nH]c2ncc(-c3cncnc3NC3CCN(C)CC3)cc12 [Compound 19, 5-(3methyl-1H-pyrazolo[3,4-b]pyridine-5yl)-N-(1-methylpiperidine-4yl)pyrimidin-4-amine]
- IC50 (LRRK2): > 500 nM
- IC50 (LRRK2 G2019S): > 500 nM

Compound: Cc1n[nH]c2ncc(NC3CCCN(Cc4ccc(F)cc4)C3)cc12 (stereo not shown) [Compound 22, N-(1-(4-fluorobenzyl)piperidine-3-yl)-3-methyl-1H-pyrazolo[3,4-b]pyridine-5-amine]
- IC50 (LRRK2): > 500 nM
- IC50 (DYRK1A): > 500 nM
- IC50 (LRRK2 G2019S): > 500 nM

Compound: Cc1n[nH]c2ncc(NC3CCCN(Cc4ccc(F)c(F)c4)C3)cc12 (stereo not shown) [Compound 26]
- IC50 (LRRK2): > 500 nM
- IC50 (LRRK2 G2019S): > 500 nM

Compound: Cc1n[nH]c2ncc(NC3CCCN(Cc4ccc(Cl)cc4)C3)cc12 (stereo not shown) [Compound 27, N-(1-(4-Chlorobenzyl)piperidin-3-yl)-3-methyl-1H-pyrazolo[3,4-b]pyridid-5-amine]
- IC50 (LRRK2): > 500 nM
- IC50 (DYRK1A): > 500 nM
- IC50 (LRRK2 G2019S): > 500 nM

Compound: Cc1n[nH]c2ncc(NC3CCCN(Cc4ccc(Cl)c(Cl)c4)C3)cc12 (stereo not shown) [Compound 28, N-(1-(3,4-Chlorobenzyl)piperidin-3-yl)-3-methyl-1H-pyrazolo[3,4-b]pyridid-5-amine]
- IC50 (LRRK2): > 500 nM
- IC50 (DYRK1A): > 500 nM
- IC50 (LRRK2 G2019S): > 500 nM

Compound: Cc1n[nH]c2ncc(-c3cncc(OCCN4CCN(C)CC4)n3)cc12 [Compound 33, 5-(6-(2-(4-methylpiperazin-1-yl)ethoxy)pyrazin-2-yl)-3-methyl-1H-pyrazolo[3,4-b]pyridine]
- IC50 (LRRK2): > 500 nM
- IC50 (DYRK1A): > 500 nM
- IC50 (LRRK2 G2019S): > 500 nM

Compound: Cc1n[nH]c2ncc(-c3cncc(NC(=O)C4CCN(C)CC4)n3)cc12 [Compound 39]
- IC50 (LRRK2): > 500 nM
- IC50 (DYRK1A): > 500 nM
- IC50 (LRRK2 G2019S): > 500 nM

Compound: Cc1n[nH]c2ncc(-c3cncc(Cl)n3)cc12 [Compound 42, 5-(6-chloropyrazin-2-yl)-3-methyl-1H-pyrazolo[3,4-b]pyridine]
- IC50 (LRRK2): > 1000 nM
- IC50 (LRRK2 G2019S): > 1000 nM

Compound: Cc1n[nH]c2ncc(-c3cnccn3)cc12 [Compound 45, 3-methyl-5-(pyrazin-2-yl)-1H-pyrazolo[3,4-b]pyridine]
- IC50 (LRRK2): > 1000 nM
- IC50 (LRRK2 G2019S): > 1000 nM

Compound: Cc1n[nH]c2ncc(-c3cncc(N4CCCC4=O)n3)cc12 [Compound 48, 1-(6-(3-methyl-1H-pyrazolo[3,4-b]pyridin-5-yl)pyrazin-2-yl)pyrrolidin-2-one]
- IC50 (LRRK2): > 500 nM
- IC50 (DYRK1A): > 1000 nM
- IC50 (LRRK2 G2019S): > 500 nM

Compound: Cc1n[nH]c2ncc(-c3cncc(NC4CCN(C)C4)n3)cc12 (stereo not shown) [Compound 51, 6-(3-methyl-1H-pyrazolo[3,4-b]pyridin-5-yl)-N-(1-methylpyrrolidin-3-yl)pyrazin-2-amine]
- IC50 (LRRK2): > 500 nM
- IC50 (DYRK1A): > 1000 nM
- IC50 (LRRK2 G2019S): > 500 nM

Compound: Cc1n[nH]c2ncc(-c3cncc(N4CCC(F)(F)C4)n3)cc12 [Compound 56, 5-(6-(3,3-difluoropyrrolidin-1-yl)pyrazin-2-yl)-3-methyl-1H-pyrazolo[3,4-b]pyridine]
- IC50 (LRRK2): > 500 nM
- IC50 (DYRK1A): > 1000 nM
- IC50 (LRRK2 G2019S): > 500 nM

Compound: Cc1n[nH]c2ncc(-c3cncc(N4CCN(CCO)CC4)n3)cc12 [Compound 59, 2-(4-(6-(3-methyl-1H-pyrazolo[3,4-b]pyridin-5-yl)pyrazin-2-yl)piperazin-1-yl)ethanol]
- IC50 (LRRK2): < 500 nM
- IC50 (DYRK1A): > 500 nM
- IC50 (LRRK2 G2019S): < 500 nM

Compound: Cc1n[nH]c2ncc(-c3cncc(N4CCN(C)CC4)n3)cc12 [Compound 65, 3-methyl-5-(6-(4-methylpiperazin-1-yl)pyrazin-2-yl)-1H-pyrazolo[3,4-b]pyridine]
- IC50 (LRRK2): < 500 nM
- IC50 (DYRK1A): > 1000 nM
- IC50 (LRRK2 G2019S): < 500 nM

Compound: Cc1n[nH]c2ncc(-c3cncc(NCCN(C)C)n3)cc12 [Compound 68, N^1,N^1-dimethyl-N2-(6-(3-methyl-1H-pyrazolo[3,4-b]pyridin-5-yl)pyrazin-2-yl)ethane-1,2-diamine]
- IC50 (LRRK2): < 500 nM
- IC50 (DYRK1A): > 1000 nM
- IC50 (LRRK2 G2019S): < 500 nM

Compound: Cc1n[nH]c2ncc(-c3nccnc3N3CCCC3)cc12 [Compound 74, 3-methyl-5-(3-(pyrrolidin-1-yl)pyrazin-2-yl)-1H-pyrazolo[3,4-b]pyridine]
- IC50 (LRRK2): > 1000 nM
- IC50 (LRRK2 G2019S): > 1000 nM

Compound: Cc1n[nH]c2ncc(-c3cccc(S(=O)(=O)N(C)C)c3)cc12 [Compound 111, N, N-dimethyl-3-(3-methyl-1H-pyrazolo[3,4-b]pyridin-5-yl)benzenesulfonamide]
- IC50 (LRRK2): > 1000 nM
- IC50 (LRRK2 G2019S): > 1000 nM

Compound: CC(=O)Nc1cccc(-c2cnc3[nH]nc(C)c3c2)c1 [Compound 114, N-(3-(3-methyl-1H-pyrazolo[3,4-b]pyridin-5-yl)phenyl)acetamide]
- IC50 (LRRK2): > 1000 nM
- IC50 (LRRK2 G2019S): > 1000 nM

Compound: Cn1cc(-c2cnc3[nH]ncc3c2)cn1 [Compound 117, 5-(1-methyl-1H-pyrazol-4-yl)-1H-pyrazolo[3,4-b]pyridine]
- IC50 (LRRK2): > 1000 nM
- IC50 (LRRK2 G2019S): > 1000 nM

Compound: CCOC(=O)c1cccc(-c2cnc3[nH]nc(C)c3c2)c1 [Compound 119, ethyl 3-(3-methyl-1H-pyrazolo[3,4-b]pyridin-5-yl)benzoate]
- IC50 (LRRK2): > 1000 nM
- IC50 (LRRK2 G2019S): > 1000 nM

Compound: Cc1n[nH]c2ncc(-c3cccc(CN4CCN(C)CC4)c3)cc12 [Compound 123, 3-methyl-5-(3-((4-methylpiperazin-1-yl)methyl)phenyl)-1H-pyrazolo[3,4-b]pyridine]
- IC50 (LRRK2): > 1000 nM
- IC50 (LRRK2 G2019S): > 1000 nM

Compound: CN1CC(Nc2cncc(-c3cnc4[nH]ccc4c3)n2)C1 [Compound 130, N-(1-methylazetidin-3-yl)-6-(1H-pyrrolo[2,3-b]pyridin-5-yl)pyrazin-2-amine]
- IC50 (LRRK2): > 500 nM
- IC50 (LRRK2 G2019S): > 500 nM

Compound: O=C1CN(c2cncc(-c3cnc4[nH]ccc4c3)n2)CCN1 [Compound 133, 4-(6-(1H-pyrrolo[2,3-b]pyridin-5-yl)pyrazin-2-yl)piperazin-2-one]
- IC50 (LRRK2): > 500 nM
- IC50 (LRRK2 G2019S): > 500 nM

Compound: O=C(c1cncc(-c2cnc3[nH]ccc3c2)n1)N1CCCCC1 [Compound 138, (6-(1H-pyrrolo[2,3-b]pyridin-5-yl)pyrazin-2-yl)(piperidin-1-yl)methanone]
- IC50 (LRRK2): > 500 nM
- IC50 (LRRK2 G2019S): > 500 nM

Compound: CN1CCN(C(=O)c2cncc(-c3cnc4[nH]ccc4c3)n2)CC1 [Compound 139, (6-(1H-pyrrolo[2,3-b]pyridin-5-yl)pyrazin-2-yl)(4-methylpiperazin-1-yl)methanone]
- IC50 (LRRK2): > 1000 nM
- IC50 (LRRK2 G2019S): > 1000 nM

Compound: CN1CCC(Nc2cncc(-c3cnc4[nH]ccc4c3)n2)CC1 [Compound 140, N-(1-methylpiperidin-4-yl)-6-(1H-pyrrolo[2,3-b]pyridin-5-yl)pyrazin-2-amine]
- IC50 (LRRK2): < 500 nM
- IC50 (LRRK2 G2019S): < 500 nM

Compound: CN1CCC(Nc2cncc(-c3cnc4[nH]cc(Cl)c4c3)n2)CC1 [Compound 141, 6-(3-chloro-1H-pyrrolo[2,3-b]pyridin-5-yl)-N-(1-methylpiperidin-4-yl)pyrazin-2-amine]
- IC50 (LRRK2): < 500 nM
- IC50 (LRRK2 G2019S): < 500 nM

Compound: C=CC(=O)Nc1cccc(-c2cnc3[nH]nc(C)c3c2)c1 [Compound 155, N-(3-(3-methyl-1H-pyrazolo[3,4-b]pyridin-5-yl)phenyl)acrylamide]
- IC50 (LRRK2): > 1000 nM
- IC50 (LRRK2 G2019S): > 1000 nM

Compound: Cc1n[nH]c2ncc(-c3cccc(CC#N)c3)cc12 [Compound 158, 2-(3-(3-methyl-1H-pyrazolo[3,4-b]pyridin-5-yl)phenyl)acetonitrile]
- IC50 (LRRK2): > 1000 nM
- IC50 (LRRK2 G2019S): > 1000 nM

Compound: Cc1n[nH]c2ncc(-c3ccc(N4CCN(C)CC4)cc3)cc12 [Compound 161, 3-methyl-5-(4-(4-methylpiperazin-1-yl)phenyl)-1H-pyrazolo[3,4-b]pyridine]
- IC50 (LRRK2): > 1000 nM
- IC50 (LRRK2 G2019S): > 1000 nM

Compound: Cc1n[nH]c2ncc(Nc3cccc(CN4CCN(CCO)CC4)c3)cc12 [Compound 164, 2-(4-(3-((3-methyl-1H-pyrazolo[3,4-b]pyridin-5-yl)amino)benzyl)piperazin-1-yl)ethanol]
- IC50 (LRRK2): > 1000 nM
- IC50 (LRRK2 G2019S): > 1000 nM

Compound: Cc1n[nH]c2ncc(Nc3ccc(CN4CCN(C)CC4)cc3)cc12 [Compound 167, 3-methyl-N-(4-((4-methylpiperazin-1-yl)methyl)phenyl)-1H-pyrazolo[3,4-b]pyridin-5-amine]
- IC50 (LRRK2): > 1000 nM
- IC50 (LRRK2 G2019S): > 1000 nM

Compound: Cc1n[nH]c2ncc(Nc3ccc(N4CCN(C)CC4)c(F)c3)cc12 [Compound 170, N-(3-fluoro-4-(4-methylpiperazin-1-yl)phenyl)-3-methyl-1H-pyrazolo[3,4-b]pyridin-5-amine]
- IC50 (LRRK2): > 1000 nM
- IC50 (LRRK2 G2019S): > 1000 nM

Compound: Cc1n[nH]c2ncc(Nc3cncc(Cl)n3)cc12 [Compound 171, N-(6-chloropyrazin-2-yl)-3-methyl-1H-pyrazolo[3,4-b]pyridin-5-amine]
- IC50 (LRRK2): > 1000 nM
- IC50 (LRRK2 G2019S): > 1000 nM
